In ChEMBL document CHEMBL4699657, “Fragment-to-Lead Medicinal Chemistry Publications in 2019” (J Med Chem, 2020):

Experiment: Inhibition of Influenza A/California/04/09 H1N1 PA endonuclease (1 to 204 residues) expressed in Escherichia coli BL21 (RIL) cells using (6-FAM)TGGCAATATCAGCTCCACA(MGBNFQ) DNA probe as substrate measured after 5 to 90 mins by fluorescence assay
Parameters: species or system Influenza A virus (A/California/04/2009(H1N1))

SMILES | IC50 [µM]
O=c1[nH]cc(Br)cc1O | 16
O=C(O)c1ccc(-c2cc(O)c(=O)[nH]c2-c2ccc(F)cc2)cc1 | 0.011
